Measured values taken from article PMC10816875, “Synthesis, Characterization, Cytotoxicity, Cellular Imaging, Molecular Docking, and ADMET Studies of Piperazine-Linked 1,8-Naphthalimide-Arylsulfonyl Derivatives” (International Journal of Molecular Sciences, 2024).
Where two headings read alike, the source gives them in different places.

Legend:
Type in all cases: cell-based
[1] = CCK-8 viability of 3T3 fibroblast cells; details: mouse, read-out: % Cell viability against 3T3 fibroblast cell line
Method: (§1) For the anticancer studies, we established a stable cell culture for mouse breast cancer cell line 4T1 (ATCC: CRL-2539) cultured in the medium composition RPMI-1640 (Gibco; Grand Island, New York, USA), 10% fetal bovine serum (Gibco, Mexico), 4.5 g/L glucose, 1.5 g/L NaHCO3, 1 mM sodium pyruvate (Gibco; Grand Island, New York, NY, USA), and 1% penicillin–streptomycin (10,000 U/mL). We observed typical cell morphology after the IV passage of cells unfrozen from liquid nitrogen. Then, the cells were used for the subsequent anticancer experiment. A non-cancerous fibroblast cell line (3T3/NIH, ATCC: CRL-1658) was employed for the fluorescence imaging assay. The cells were cultured in 90% Dulbecco’s modified Eagle’s medium with 4 mM L-glutamine, 2 mM sodium pyruvate, 1% non-essential amino acid, 1% penicillin/streptomycin/amphotericin, and 10% fetal bovine serum.
(§2) A total of 5.0 × 10^4 of 3T3 cells per well in a 96-well plate were co-cultured with the 1.0 μg/mL of SA samples for 72 h. The viability of the 3T3 cells was assayed by using 10% CCK-8 reagent for 60 min to determine the toxicity of the SA samples. Afterwards, the cells were fixed with glutaraldehyde, followed by staining with 0.1 μg/mL of 4′,6-diamidino-2-phenylindole (DAPI) for the imaging of the nuclei. An inverted fluorescent optical microscope (Nikon, Eclipse Ti-S, Japan) was utilized. The fluorescent light source was Nikon Intensilight C-HGFI, and two fluorescent filter cubes (Ex = 340–380 nm, Em = 435–485 nm, corresponding to DAPI, and Ex = 465–495 nm, Em = 512–558 nm, corresponding to SA samples) were used to observe the distribution of SA samples in the cytoplasm. A scientific-grade CCD (Dhyana, model: 400 BSI, Tucsen, Fuzhou, China) was used to record the images. The magnification of the OM was 200×. The original fluorescent images were recorded in greyscale. ImageJ software (an open-source software, NIH Image, version 1.54f, Bethesda, MD, USA) was employed to merge and convert two fluorescent images into visible colors, e.g., blue for cell nuclei and green for SA1–SA7 samples.

3T3 fibroblast cell line = assay: CCK-8 viability of 3T3 fibroblast cells; details: 1 μg/mL, 72 h
Method: as §1, §2

[2] = test system: mouse breast cancer 4T1 cell line; assay: MTT cytotoxicity assay on 4T1 breast cancer cells; details: 24 h
Method: as §1
A cellular viability assay was employed for the cytotoxicity of SA samples. […] A cell viability reagent (MTT, Sigma-Aldrich, St Louis, MI, USA) containing yellow tetrazolium salt (3-(4,5-dimethylthiazol-2-yl)-2,5-diphenyltetrazolium bromide) can be converted to purple formazan salt to indicate the cell viability. The 4T1 breast cancer cells were cultured at a density of 5.0 × 10^3 cells per well in 96-well plates. The cells were treated with SA samples for 24 h. The control groups were abbreviated as Cont (100% culture medium), representing normal cell culture; PC (20% DMSO and 80% culture medium), representing toxic condition; and NC (0.1% DMSO and 99.9%), representing minimum toxic condition. MTT reagent was added to 96-well plates to measure the cytotoxic effect of the SA compounds on 4T1 cells.

| SMILES | viability at 72 h, 1 μg/mL [1] [%] | cytotoxicity against 4T1 breast cancer cells (in words) [2] | other results |
| --- | --- | --- | --- |
| O=C1c2cccc3cccc(c23)C(=O)N1CCN1CCN(S(=O)(=O)c2ccc([N+](=O)[O-])cc2)CC1 [SA3, 2-(2-(4-((4-Nitrophenyl)sulfonyl)piperazin-1-yl)ethyl)-1H-benzo[de]isoquinoline-1,3 (2H)-dione] | 82 to 95 | low toxicity | % Cell viability against 3T3 fibroblast cell line (3T3 fibroblast cell line): relatively high viability |
| N#Cc1ccc(S(=O)(=O)N2CCN(CCN3C(=O)c4cccc5cccc(c45)C3=O)CC2)cc1 [SA7, 4-((4-(2-(1,3-Dioxo-1H-benzo[de]isoquinolin-2(3H)-yl)ethyl)piperazin-1-yl)sulfonyl)benzonitrile] | 82 to 95 |  |  |
| O=C1c2cccc3cccc(c23)C(=O)N1CCN1CCN(S(=O)(=O)c2ccc3ccccc3c2)CC1 [SA2, 2-(2-(4-(Naphthalen-2-ylsulfonyl)piperazin-1-yl)ethyl)-1H-benzo[de]isoquinoline-1,3 (2H)-dione] | 82 to 95 |  |  |
| O=C1c2cccc3cccc(c23)C(=O)N1CCN1CCN(S(=O)(=O)c2cccs2)CC1 [SA5, 2-(2-(4-(Thiophen-2-ylsulfonyl)piperazin-1-yl)ethyl)-1H-benzo[de]isoquinoline-1,3(2H)-dione] | 82 to 95 | most potent (cytotoxic) compound | viability at 0.7 µM ([2]; Mus musculus, 4T1, 0.7 μM): < 80% |
| O=C1c2cccc3cccc(c23)C(=O)N1CCN1CCN(S(=O)(=O)c2ccc(Cl)s2)CC1 [SA4, 2-(2-(4-((5-Chlorothiophen-2-yl)sulfonyl)piperazin-1-yl)ethyl)-1H-benzo[de]isoquinoline-1,3(2H)-dione] | 82 to 95 |  |  |
| O=C1c2cccc3cccc(c23)C(=O)N1CCN1CCN(S(=O)(=O)c2ccccc2[N+](=O)[O-])CC1 [SA1, 2-(2-(4-((2-Nitrophenyl)sulfonyl)piperazin-1-yl)ethyl)-1H-benzo[de]isoquinoline-1,3 (2H)-dione] |  |  | viability at 72 h, 1 μg/mL ([1]; 3T3/NIH fibroblast cells (non-cancerous)): 82 to 95% |
| O=C1c2cccc3cccc(c23)C(=O)N1CCN1CCN(S(=O)(=O)c2cccnc2)CC1 [SA6, 2-(2-(4-(Pyridin-3-ylsulfonyl)piperazin-1-yl)ethyl)-1H-benzo[de]isoquinoline-1,3(2H)-dione] | 82 to 95 | good anticancer activity |  |
